Measured values: ChEMBL document CHEMBL4371003, “Discovery of Novel Dual Mechanism of Action Src Signaling and Tubulin Polymerization Inhibitors (KX2-391 and KX2-361)” (J Med Chem, 2018)
One block for each compound: values may come before it.

Tests used:
[1] = test system: HT-29; experiment: Antiproliferative activity against human HT-29 cells in presence of 1.5% FCS by BrdU incorporation assay; format: functional, cell-based
[2] = test system: KM12; experiment: Antiproliferative activity against human KM12 cells by BrdU incorporation assay; format: functional
[3] = test system: MOLT-4; experiment: Antiproliferative activity against human MOLT4 cells; format: functional
[4] = test system: Jurkat; experiment: Antiproliferative activity against human Jurkat cells; format: functional
[5] = test system: NCI-H460; experiment: Antiproliferative activity against human H460 cells; format: functional; conditions: Homo sapiens, NCI-H460
[6] = test system: NCI-H226; experiment: Antiproliferative activity against human NCI-H226 cells; format: functional; conditions: Homo sapiens, NCI-H226
[7] = test system: SW-620; experiment: Antiproliferative activity against human SW620 cells; format: functional
[8] = test system: SW1088; experiment: Antiproliferative activity against human SW1088 cells; format: functional
[9] = test system: MES-SA/Dx5; experiment: Antiproliferative activity against human MES-SA/Dx5 cells; format: functional
[10] = test system: NCI/ADR-RES; experiment: Antiproliferative activity against human NCI/ADR-RES cells; format: functional
[11] = Oral bioavailability in mouse; format: ADME, organism-based; conditions: in vivo
[12] = Ratio of AUC in brain to plasma of mouse at 20 mg/kg, po; format: ADME, organism-based; conditions: brain and plasma, read-out: Ratio AUC
[13] = Oral bioavailability in mouse at 20 mg/kg; format: ADME, organism-based; conditions: in vivo
[14] = target: Proto-oncogene tyrosine-protein kinase Src (Mus musculus, UniProt P05480); experiment: Inhibition of Src autophosphorylation in mouse GL261 cells; format: cell-based
Chain of Proto-oncogene tyrosine-protein kinase Src (Mus musculus, UniProt P05480) (P05480 2-535 limits assumed): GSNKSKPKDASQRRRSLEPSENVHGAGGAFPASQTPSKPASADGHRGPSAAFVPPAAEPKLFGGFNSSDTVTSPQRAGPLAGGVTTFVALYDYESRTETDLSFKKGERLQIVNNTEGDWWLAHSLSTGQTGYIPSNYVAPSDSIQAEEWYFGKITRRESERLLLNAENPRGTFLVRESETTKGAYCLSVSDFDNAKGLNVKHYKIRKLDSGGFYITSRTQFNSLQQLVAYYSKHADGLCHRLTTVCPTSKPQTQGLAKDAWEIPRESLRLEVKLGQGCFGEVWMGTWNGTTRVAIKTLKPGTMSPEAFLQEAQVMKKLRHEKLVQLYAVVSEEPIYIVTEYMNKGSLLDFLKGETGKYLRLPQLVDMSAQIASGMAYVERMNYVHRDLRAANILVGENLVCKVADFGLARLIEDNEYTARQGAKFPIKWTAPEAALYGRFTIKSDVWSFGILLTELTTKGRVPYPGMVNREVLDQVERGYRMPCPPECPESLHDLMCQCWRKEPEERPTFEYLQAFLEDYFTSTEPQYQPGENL

[15] = target: Proto-oncogene tyrosine-protein kinase Src (Homo sapiens, UniProt P12931); experiment: Inhibition of Src (unknown origin)
Chain of Proto-oncogene tyrosine-protein kinase Src (Homo sapiens, UniProt P12931) (P12931 2-536 limits assumed): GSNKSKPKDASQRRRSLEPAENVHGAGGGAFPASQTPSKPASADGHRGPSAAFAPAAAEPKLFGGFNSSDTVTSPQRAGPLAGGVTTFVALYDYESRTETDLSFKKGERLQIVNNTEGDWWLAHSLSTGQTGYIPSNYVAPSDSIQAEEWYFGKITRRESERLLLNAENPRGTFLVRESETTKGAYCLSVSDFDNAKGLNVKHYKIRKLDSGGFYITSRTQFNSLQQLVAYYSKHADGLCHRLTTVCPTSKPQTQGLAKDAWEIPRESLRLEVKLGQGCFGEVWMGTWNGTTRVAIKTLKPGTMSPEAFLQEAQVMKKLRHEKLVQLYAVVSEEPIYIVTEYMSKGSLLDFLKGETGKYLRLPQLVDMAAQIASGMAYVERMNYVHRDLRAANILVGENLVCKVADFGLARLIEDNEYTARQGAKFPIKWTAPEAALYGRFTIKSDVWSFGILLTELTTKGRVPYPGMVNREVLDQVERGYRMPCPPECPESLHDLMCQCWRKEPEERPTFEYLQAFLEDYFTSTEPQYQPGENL

[16] = test system: Daoy; experiment: Antiproliferative activity against human DaOY cells; format: functional
[17] = test system: SK-N-MC; experiment: Antiproliferative activity against human SK-N-MC cells; format: functional
[18] = test system: LN-18; experiment: Antiproliferative activity against human LN18 cells; format: functional
[19] = test system: SK-N-FI; experiment: Antiproliferative activity against human SK-N-FI cells; format: functional
[20] = test system: U-87 MG; experiment: Antiproliferative activity against human U87 cells; format: functional, U-87MG ATCC
[21] = test system: T98G; experiment: Antiproliferative activity against human T98G cells; format: functional
[22] = test system: U-118-MG; experiment: Antiproliferative activity against human U118MG cells; format: functional
[23] = test system: U138-MG; experiment: Antiproliferative activity against human U138MG cells; format: functional
[24] = Antiproliferative activity against human U373 cells; format: functional, U-373MG ATCC; conditions: U373 MG
[25] = Half life in mouse; format: ADME, organism-based; conditions: in vivo
[26] = test system: GL261; experiment: Antitumor activity against mouse GL261 cells implanted in mouse assessed as incidence of long term survival (>100 days) at 30 mg/kg, po qd relative to control; format: functional
[27] = test system: GL261 (Mus musculus); experiment: Antiproliferative activity against mouse GL261 cells
[28] = test system: NCI-H460; experiment: Antitumor activity against human NCI-H460 cells; format: functional, cell-based
[29] = target: T1, Insulin receptor (Homo sapiens, UniProt P06213); experiment: Non-competitive inhibition of human placental insulin receptor expressed in CHO cell membrane assessed as decrease in insulin-stimulated A2 phosphorylation preincubated for 15 mins followed by substrate addition and measured after 15 mins in presence of [gamma-32P]ATP by Dixon plot analysis; format: cell-based
T1 sequence (P06213 28-758 limits assumed): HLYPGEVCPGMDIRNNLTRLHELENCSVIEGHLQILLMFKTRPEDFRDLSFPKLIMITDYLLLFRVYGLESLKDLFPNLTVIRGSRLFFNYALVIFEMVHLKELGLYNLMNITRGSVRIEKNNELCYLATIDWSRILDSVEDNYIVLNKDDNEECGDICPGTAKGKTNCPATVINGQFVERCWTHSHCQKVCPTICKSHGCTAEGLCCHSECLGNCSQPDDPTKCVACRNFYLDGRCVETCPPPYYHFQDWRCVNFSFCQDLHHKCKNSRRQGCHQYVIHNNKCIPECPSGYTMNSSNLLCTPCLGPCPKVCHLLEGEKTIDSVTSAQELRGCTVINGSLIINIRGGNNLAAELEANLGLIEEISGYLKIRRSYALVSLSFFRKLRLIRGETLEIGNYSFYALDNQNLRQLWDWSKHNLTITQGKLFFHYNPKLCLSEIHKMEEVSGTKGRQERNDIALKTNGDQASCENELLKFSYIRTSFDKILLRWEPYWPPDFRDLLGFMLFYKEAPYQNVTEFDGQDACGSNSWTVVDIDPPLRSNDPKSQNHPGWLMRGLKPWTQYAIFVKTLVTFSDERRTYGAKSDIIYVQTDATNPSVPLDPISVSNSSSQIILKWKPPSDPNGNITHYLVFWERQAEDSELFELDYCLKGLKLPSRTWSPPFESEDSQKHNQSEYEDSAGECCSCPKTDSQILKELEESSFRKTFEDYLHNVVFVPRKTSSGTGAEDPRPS
T1 sequence (P06213 763-1382 limits assumed): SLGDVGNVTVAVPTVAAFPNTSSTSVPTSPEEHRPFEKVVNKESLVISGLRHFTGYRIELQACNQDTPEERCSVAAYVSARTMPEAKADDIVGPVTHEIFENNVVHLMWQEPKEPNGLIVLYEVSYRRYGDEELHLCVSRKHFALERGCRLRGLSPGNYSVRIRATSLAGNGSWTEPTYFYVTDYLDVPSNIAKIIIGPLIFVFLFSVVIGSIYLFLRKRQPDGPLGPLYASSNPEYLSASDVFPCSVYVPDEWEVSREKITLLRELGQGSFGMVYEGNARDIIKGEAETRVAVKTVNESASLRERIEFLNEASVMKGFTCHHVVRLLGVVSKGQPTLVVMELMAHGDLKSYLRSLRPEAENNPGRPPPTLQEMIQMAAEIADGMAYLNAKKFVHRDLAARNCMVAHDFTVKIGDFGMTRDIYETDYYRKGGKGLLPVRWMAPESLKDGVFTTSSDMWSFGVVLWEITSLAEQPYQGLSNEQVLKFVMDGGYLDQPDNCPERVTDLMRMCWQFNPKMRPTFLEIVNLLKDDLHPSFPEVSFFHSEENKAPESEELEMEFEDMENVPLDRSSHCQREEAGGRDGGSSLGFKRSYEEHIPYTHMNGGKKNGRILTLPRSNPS

[30] = target: T1, Insulin receptor; experiment: Inhibition of human placental insulin receptor expressed in CHO cells assessed as decrease in insulin-stimulated [3H]-2-deoxyglucose uptake preincubated for 1 hr; format: cell-based

Structure (SMILES): Cc1nc(Nc2ncc(C(=O)Nc3c(C)cccc3Cl)s2)cc(N2CCN(CCO)CC2)n1.O [DASATINIB]
- GI50 [3]: 644 nM
- GI50 [4]: 8 nM
- GI50 [5]: 90 nM
- GI50 [6]: 163 nM
- GI90 [7]: 2940 nM
- GI50 ([7]; Homo sapiens, SW-620): 2420 nM
- GI50 [8]: 898 nM

Structure (SMILES): CC(=O)O[C@H]1C(=O)[C@@]2(C)[C@H]([C@H](OC(=O)c3ccccc3)[C@]3(O)C[C@H](OC(=O)[C@H](O)[C@@H](NC(=O)c4ccccc4)c4ccccc4)C(C)=C1C3(C)C)[C@]1(OC(C)=O)CO[C@@H]1C[C@@H]2O [PACLITAXEL]
- GI50 [9]: 1800 nM
- GI50 [10]: 5940 nM

Structure (SMILES): O=C(Cc1ccc(-c2ccc(N3CCOCC3)cc2)cn1)NCc1cccc(F)c1 [KX2-361]
- bioavailability [11]: 40%
- Kp [12]: 1.16
- bioavailability [13]: 40%
- IC50 [14]: 60 nM
- IC50 [15]: 67000 nM
- GI50 [16]: 16 nM
- GI50 [17]: 8 nM
- GI50 [8]: 26 nM
- GI50 [18]: 2.9 nM
- GI50 [19]: 11 nM
- GI50 [20]: 76 nM
- GI50 [21]: 14 nM
- GI50 [22]: 29 nM
- GI50 [23]: 51 nM
- GI50 [24]: 54 nM
- half-life [25]: 2.5 h
- Activity [26]: 30%
- GI50 [27]: 57 nM

Structure (SMILES): O=P(O)(O)C(O)c1ccc2ccccc2c1 (configuration not stated)
- Ki [29]: 95000 nM
- IC50 [30]: 10000 nM

The next lines start with results.

- IC50 [1]: 877 nM
Structure (SMILES): O=C(Cc1ccc(-c2ccccc2)cc1)NCc1cccc(F)c1
- GI50 [2]: 410 nM

- IC50 [28]: 15000 nM
Structure (SMILES): O=C(NCc1cccc(F)c1)c1cc2cc(F)ccc2[nH]1
